The text below walks through data of PMC10223470 (Molecules, 2023).

Where two headings read alike, the source gives them in different places.

In one test the test system is mice. The experiment in a line: Elevated plus-maze (EPM) test. To be noted: 1 mg/kg s.c., 60 min before the test; p < 0.05 versus vehicle. In kind it is in vivo. On the procedure: The experiments were carried out on 6 weeks old naive Swiss male mice (Experimental Medicine Center (OMD), Lublin, Poland), weighing 28–30 g. The cages with mice were located in air-conditioned rooms maintaining the ambient temperature within the range of 23–25 °C. The animals were provided with a natural 12 h day/night cycle, replicating the day and night mode. Each testing group was represented by 8–10 animals, depending on the research schedule. All experiments were conducted according to the National Institute of Health Guidelines for the Care and Use of Laboratory Animals (8th edition) and to the European Community Council Directive for the Care and Use of Laboratory Animals of 22 September 2010 (2010/63/EU) and were approved by the Local Ethical Committee (number of ethical approval: 147/2018).
Compound 17 (25, 50, 75 mg/kg) was suspended in 1% Tween 80 in saline solution and was administered intraperitoneally (i.p.) 60 min before the test. Diazepam (DZ, Relanium, Polfa, Poland) at a dose of 1 mg/kg was diluted in 0.9% saline containing 1% Tween 80 and was administered subcutaneously (s.c.), 60 min before the test. Imipramine hydrochloride (30 mg/kg, Sigma-Aldrich was administered intraperitoneally (i.p.) 60 min before the test. D-amphetamine sulfate (3 mg/kg; Sigma-Aldrich, USA) was given subcutaneously (s.c.). Prior to administration, the agent was dissolved in saline and injected 30 min before the test. Control animals received an (i.p.) or (s.c.) injection of a respective vehicle. All compounds were injected in a manner generally accepted in experimental pharmacology, in an amount of 10 mL/kg body weight.
The experiment was carried out on mice according to the method of Lister. […] The number of entries into the open arms and the time spent in these arms were scored for a 5-min test period. […] The following measures were obtained from the test: the total number of arm entries, the percentage of entries into the open arms, the time spent in the open arms expressed as a percentage of the time spent in both the open and closed arms. […]

The target of test [1] is T1, human dopamine D1 receptor (Homo sapiens, UniProt P21728).
T1 construct: expressed in transfected cells; host or cells: CHO-K1
The following applies: ref [10]; cited from earlier work.

The target of test [2] is T2, human dopamine D3 receptor (Homo sapiens, UniProt P35462).
T2 construct: expressed in transfected cells; host or cells: CHO-K1
The following applies: ref [10]; cited from earlier work.

Test [3] addresses T3, human 5-HT1A receptor (Homo sapiens, UniProt P08908).
T3 construct: expressed in transfected cells; host or cells: HEK293
T3 sequence (P08908 1-422): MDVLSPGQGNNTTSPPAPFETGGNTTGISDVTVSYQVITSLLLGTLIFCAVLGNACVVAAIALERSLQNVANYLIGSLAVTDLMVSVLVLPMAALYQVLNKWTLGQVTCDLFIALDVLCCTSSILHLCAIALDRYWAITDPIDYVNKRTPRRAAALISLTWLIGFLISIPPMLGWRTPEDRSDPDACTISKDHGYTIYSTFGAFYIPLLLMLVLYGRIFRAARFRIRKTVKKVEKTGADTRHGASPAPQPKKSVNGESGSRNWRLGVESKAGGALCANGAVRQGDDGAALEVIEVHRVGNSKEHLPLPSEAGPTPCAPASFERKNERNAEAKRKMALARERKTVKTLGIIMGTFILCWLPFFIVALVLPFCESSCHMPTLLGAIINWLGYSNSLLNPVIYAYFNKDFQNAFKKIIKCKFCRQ
The following applies: ref [10]; cited from earlier work.

In test [4] the target is T4, human 5-HT2A receptor (Homo sapiens, UniProt P28223).
T4 construct: expressed in transfected cells; host or cells: CHO-K1
To be noted: ref [10]; cited from earlier work.

Test [5] has as its target T5, human D2S receptor (Homo sapiens, UniProt P14416).
T5 construct: expressed in transfected cells; host or cells: CHO-K1
The following applies: radioligand binding; ref [10]; read-out: huD2 Ki; cited from earlier work.

Another test deals with T6, human 5-HT7 receptor (Homo sapiens, UniProt P34969).
T6 construct: expressed in transfected cells; host or cells: HEK293
The experiment in a line: Competition radioligand binding at human 5-HT7 receptor ([3H]-SB269970). The following applies: mean ± SEM of 2 independent experiments, read-out: hu5-HT7 % inh. at 10 µM. On the procedure: (§1) Competition radioligand binding assays were performed on membranes isolated from cell lines stably expressing the cloned human receptors, which were either in-house or commercially available. […] Assays (250 μL assay final volume) were carried out in 96-well polypropylene plates in duplicate. In short, the suspension of appropriate membrane protein was incubated in an assay buffer with the addition of the corresponding radioligand, in the presence or absence of a tested compound or reference compound. […] After the incubation, the content of the test plates was transferred to 96 well plates with glass fiber filter GF/B or GF/C, previously pretreated with polyethyleneimine (PEI), and rapidly filtered with the use of vacuum, followed by rapid washing with cold (4 °C) wash buffer. After that, the filter plates were dried at 60 °C for 1 h. Then, 30 μL of liquid scintillation cocktail (UniverSol-ES, MP Biomedicals, Solon, OH, USA) was added to each well of the filter plates, and the radioactivity was measured in a MicroBeta^2 microplate scintillation counter (PerkinElmer, Madrid, Spain).
(§2) Competition binding curves were fitted to a one-site competition binding model (Fit Ki) with the use of Prism 7 software (GraphPad, San Diego, CA, USA). logKi (log of the equilibrium dissociation constant (Ki)) values were obtained after constraining the concentration of radioligand employed in the assay and its dissociation constant (KD) as determined in saturation radioligand binding assays.

The target in test [6] is T2, human dopamine D3 receptor. Description: Competition radioligand binding at human D3 receptor ([3H]-Spiperone). To be noted: mean ± SEM of 2 independent experiments, read-out: huD3 % inh. at 10 µM. On the procedure:
as §1, §2

Test [7] deals with T5, human D2S receptor. The experiment in a line: Competition radioligand binding at human D2 receptor ([3H]-Spiperone, CHO-K1 membranes). The following applies: mean ± SEM of 2–3 independent experiments in duplicate; read-out: huD2 Ki. As for the experimental part: Experiments were carried out in membranes isolated from a CHO-K1 cell line stably overexpressing the cloned human D2S receptor.
as §1, §2

The target of test [8] is T1, human dopamine D1 receptor. The experiment in a line: Competition radioligand binding at human D1 receptor ([3H]-SCH-23390). To be noted: mean ± SEM of 2 independent experiments, read-out: huD1 % inh. at 10 µM. As for the experimental part:
as §1, §2

For test [9], the target named is T5, human D2S receptor. Description: Functional assays of cAMP signalling at D2 receptors (CHO-K1 cells, HTRF). In kind it is cell-based. The following applies: for Kb: antagonism of 1 µM dopamine response; for efficacy at D2 receptor (mode of action): cAMP signaling, CHO-K1 cells. On the procedure: The assessment of the activity of selected compounds at the D2 receptor was performed in cell-based functional assays of cAMP signaling, in the CHO-K1 cell line with stable expression of the cloned human D2S receptor, which was also employed for the radioligand binding assays. For D2 receptor antagonism, test compounds were dispensed into an empty 96-well plate (Isoplate-96 Black Frame White Well, PerkinElmer España SL, Madrid, Spain) with the use of the dispensing noncontact Echo 550 acoustic liquid handler (LABCYTE Inc., San Jose, CA, USA). Compounds were handled from frozen 10^−2 M stock solutions in 100% DMSO, from which serial 1000× solutions were prepared in 100% DMSO at the time of the assay, keeping vehicle concentration (0.1% DMSO) constant in the assay. Vials containing viable frozen cells were quickly thawed in a 37 °C water bath and cells were seeded into the assay plate in assay buffer (kit stimulation buffer containing 500 µM 3-isobutyl-1-methylxanthine (IBMX), which was directly added to the buffer as powder). […] After 10 min incubation at 37 °C, 10 µM forskolin was added to the corresponding wells, and incubation was continued for 5 min. After this time, cellular cAMP levels were quantified using the homogeneous time-resolved fluorescence (HTRF)-based cAMP Gs dynamic kit (Cisbio, Bioassays, Codolet, France) according to the manufacturer’s protocol. […] Basal cAMP levels were determined in control wells in the absence of compound, agonist, and forskolin.
On the technique in general: In TR-FRET formats the signal depends on donor and acceptor labels being close together.

For test [10], the target named is T4, human 5-HT2A receptor. Description: Competition radioligand binding at human 5-HT2A receptor ([3H]-Ketanserin). The following applies: mean ± SEM of 2 independent experiments, read-out: hu5-HT2A % inh. at 10 µM. On the procedure: as §1, §2
Test [11] concerns the target T3, human 5-HT1A receptor. The experiment in a line: Competition radioligand binding at human 5-HT1A receptor ([3H]-8-OH-DPAT). To be noted: mean ± SEM of 2 independent experiments, read-out: hu5-HT1A % inh. at 10 µM. As for the experimental part: as §1, §2
The mark [12] stands for this setting: Leff-Dougall variant of Cheng-Prusoff, read-out: D2 Signalling (cAMP) Kb (Mean).

T5 sequence (P14416 1-414 isoform P14416-2): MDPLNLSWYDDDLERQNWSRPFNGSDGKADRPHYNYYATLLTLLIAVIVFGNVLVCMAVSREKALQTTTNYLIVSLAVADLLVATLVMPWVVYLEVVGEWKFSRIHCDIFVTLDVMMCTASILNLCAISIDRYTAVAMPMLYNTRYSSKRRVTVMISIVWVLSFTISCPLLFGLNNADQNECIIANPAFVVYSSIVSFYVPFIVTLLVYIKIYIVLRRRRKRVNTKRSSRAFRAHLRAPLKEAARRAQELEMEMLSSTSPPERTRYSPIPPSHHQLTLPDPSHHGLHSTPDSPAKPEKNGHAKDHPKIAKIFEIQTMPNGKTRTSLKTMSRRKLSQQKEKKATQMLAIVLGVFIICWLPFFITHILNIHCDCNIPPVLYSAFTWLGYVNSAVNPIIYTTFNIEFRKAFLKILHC
T4 sequence (P28223 whole entry): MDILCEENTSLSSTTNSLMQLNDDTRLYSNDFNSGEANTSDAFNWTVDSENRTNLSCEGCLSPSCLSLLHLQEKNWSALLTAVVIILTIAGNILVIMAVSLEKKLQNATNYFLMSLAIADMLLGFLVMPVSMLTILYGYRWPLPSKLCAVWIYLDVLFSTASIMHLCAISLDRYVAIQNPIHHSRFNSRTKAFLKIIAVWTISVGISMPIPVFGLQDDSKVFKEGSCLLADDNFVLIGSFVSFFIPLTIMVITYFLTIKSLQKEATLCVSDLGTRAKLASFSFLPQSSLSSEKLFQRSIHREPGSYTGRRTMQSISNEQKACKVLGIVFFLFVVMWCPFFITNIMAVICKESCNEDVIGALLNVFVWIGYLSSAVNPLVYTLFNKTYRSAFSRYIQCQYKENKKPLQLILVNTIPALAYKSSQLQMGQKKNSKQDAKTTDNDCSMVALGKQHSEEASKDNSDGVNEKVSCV
T2 sequence (P35462 whole entry): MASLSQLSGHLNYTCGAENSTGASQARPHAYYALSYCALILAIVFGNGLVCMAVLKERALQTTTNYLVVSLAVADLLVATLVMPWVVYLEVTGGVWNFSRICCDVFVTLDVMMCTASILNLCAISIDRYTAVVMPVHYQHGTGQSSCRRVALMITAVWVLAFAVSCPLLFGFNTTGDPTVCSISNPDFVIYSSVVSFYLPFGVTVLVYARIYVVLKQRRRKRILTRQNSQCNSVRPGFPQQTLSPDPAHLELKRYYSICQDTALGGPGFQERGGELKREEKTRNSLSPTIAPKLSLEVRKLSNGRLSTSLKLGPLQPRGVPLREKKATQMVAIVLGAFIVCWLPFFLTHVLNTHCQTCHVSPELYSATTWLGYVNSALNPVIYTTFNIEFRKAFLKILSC
T1 sequence (P21728 whole entry): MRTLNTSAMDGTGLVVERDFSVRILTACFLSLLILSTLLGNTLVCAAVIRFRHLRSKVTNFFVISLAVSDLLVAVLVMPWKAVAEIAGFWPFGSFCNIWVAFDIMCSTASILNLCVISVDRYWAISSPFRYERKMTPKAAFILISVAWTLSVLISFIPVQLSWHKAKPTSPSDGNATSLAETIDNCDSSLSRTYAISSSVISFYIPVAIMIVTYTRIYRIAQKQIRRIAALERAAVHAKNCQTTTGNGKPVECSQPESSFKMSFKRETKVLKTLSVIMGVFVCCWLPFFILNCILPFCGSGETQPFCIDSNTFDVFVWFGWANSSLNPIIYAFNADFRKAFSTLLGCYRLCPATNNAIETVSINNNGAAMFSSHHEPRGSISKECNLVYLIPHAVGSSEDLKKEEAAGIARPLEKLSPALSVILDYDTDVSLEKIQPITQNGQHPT
T6 sequence (P34969 whole entry): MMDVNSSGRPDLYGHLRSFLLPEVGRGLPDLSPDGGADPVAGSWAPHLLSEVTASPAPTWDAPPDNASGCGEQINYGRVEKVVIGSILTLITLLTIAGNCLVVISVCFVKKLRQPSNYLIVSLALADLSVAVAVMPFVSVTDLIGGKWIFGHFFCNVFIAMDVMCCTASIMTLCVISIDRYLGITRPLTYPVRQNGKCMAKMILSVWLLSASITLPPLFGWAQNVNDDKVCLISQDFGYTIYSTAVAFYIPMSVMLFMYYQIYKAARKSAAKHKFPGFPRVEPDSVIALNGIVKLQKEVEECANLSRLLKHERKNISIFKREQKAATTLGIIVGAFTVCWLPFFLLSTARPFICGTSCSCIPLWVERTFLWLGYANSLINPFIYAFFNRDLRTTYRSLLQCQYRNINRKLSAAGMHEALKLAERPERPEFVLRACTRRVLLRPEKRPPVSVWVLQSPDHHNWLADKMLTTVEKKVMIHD

On to `CN1C(=O)CN=C(c2ccccc2)c2cc(Cl)ccc21` [Diazepam, reference compound], for which the “time spent in the open arms of the maze” value in the test on mice is given as “statistically significant increase”.
What is called Ki is the equilibrium dissociation constant of an inhibitor or competing ligand from its target. `O=C(CCN1C(=O)CSc2ccccc21)Nc1ccc(C(F)(F)F)cc1` [Compound D2AAK2]: in test [1], the “activity at dopamine D1 receptor” value is given as “not active”. The “activity at dopamine D3 receptor” value in [2] was “not active”. Further, at human 5-HT1A receptor [3], the “activity at serotonin 5-HT1A receptor” value is “not active”. The “activity at serotonin 5-HT2A receptor” value on human 5-HT2A receptor [4] was “not active”. In addition, the inhibitory constant (Ki) on human D2S receptor [5] was 321 ± 25 nM.
Turning to `Cc1ccc(NC(=O)CCN2C(=O)CSc3ccccc32)cc1` [Compound 14, 3-(3-Oxo-2,3-dihydro-4H-benzo[b][1,4]thiazin-4-yl)-N-(p-tolyl)propanamide], the inhibition at 10 µM at human 5-HT7 receptor worked out at 0%; in test [6], 8 ± 4%; in test [8], 15 ± 2%; at human 5-HT2A receptor [10], 15 ± 1%; at human 5-HT1A receptor [11] it was 27 ± 2%. The inhibition constant Ki on human D2S receptor [7] was 676 ± 134 nM. Besides, the Kb was 117 nM on human D2S receptor [9] (forskolin-stimulated cAMP, three independent experiments, read-out: D2 Signalling (cAMP) pKb (Mean ± SEM) (converted)) and 119 nM on human D2S receptor [9] (setting [12]). The “efficacy at D2 receptor (mode of action)” value on human D2S receptor [9] is reported as “antagonism”.
Regarding `O=C(CCN1C(=O)CSc2ccccc21)Nc1ccc([N+](=O)[O-])cc1` [Compound 23, N-(4-Nitrophenyl)-3-(3-oxo-2,3-dihydro-4H-benzo[b][1,4]thiazin-4-yl)propanamide], the inhibition at 10 µM at human 5-HT7 receptor came out at 0%; in test [6] it was 4 ± 3%; in test [8] it was 12 ± 2%; at human 5-HT2A receptor [10], 23 ± 3%; on human 5-HT1A receptor [11], 22 ± 3%. In addition, the Ki at human D2S receptor [7] worked out at 724 ± 114 nM. Besides, on human D2S receptor [9] (setting [12]), the Kb was found to be 113 nM. Also, the “efficacy at D2 receptor (mode of action)” value on human D2S receptor [9] is “antagonism”.
